Test results: ChEMBL document CHEMBL3352542, “Synthesis, biological evaluation and molecular modeling study of 2-(1,3,4-thiadiazolyl-thio and 4-methyl-thiazolyl-thio)-quinazolin-4-ones as a new class of DHFR inhibitors” (Bioorg Med Chem Lett, 2014)

How the values were obtained:
[1] = Growth inhibition of human UO31 cells at 10 uM after 48 hrs; assay type: functional; details: UO-31, 48 h, read-out: GI
[2] = Growth inhibition of human RPMI8226 cells at 10 uM after 48 hrs; assay type: functional; details: RPMI-8226, 48 h, read-out: GI
786-0 = assay: Growth inhibition of human 786-0 cells at 10 uM after 48 hrs; assay type: functional; details: 786-0, 48 h, read-out: GI
T47D = assay: Growth inhibition of human T47D cells at 10 uM after 48 hrs; assay type: functional; details: read-out: GI
HT-29 = assay: Growth inhibition of human HT-29 cells at 10 uM after 48 hrs; assay type: functional; details: HT-29, 48 h, read-out: GI
[3] = Growth inhibition of human LOXIMVI cells at 10 uM after 48 hrs; assay type: functional; details: LOX IMVI, read-out: GI
SNB-75 = assay: Growth inhibition of human SNB75 cells at 10 uM after 48 hrs; assay type: functional; details: SNB-75, 48 h, read-out: GI
A549 = assay: Growth inhibition of human A549 cells at 10 uM after 48 hrs; assay type: functional; details: A549, 48 h, read-out: GI
[4] = Growth inhibition of human RXF393 cells at 10 uM after 48 hrs; assay type: functional; details: RXF 393, 48 h, read-out: GI
CCRF-CEM = assay: Growth inhibition of human CCRF-CEM cells at 10 uM after 48 hrs; assay type: functional; details: read-out: GI
Pseudomonas aeruginosa = assay: Antimicrobial activity against Pseudomonas aeruginosa assessed as inhibition zone at 200 ug/disk after 24 hrs by disc-diffusion method; assay type: functional; details: read-out: IZ
HL-60(TB) = assay: Growth inhibition of human HL-60(TB) cells at 10 uM after 48 hrs; assay type: functional; details: HL-60, 48 h, read-out: GI
[5] = Growth inhibition of human OVCAR4 cells at 10 uM after 48 hrs; assay type: functional; details: OVCAR-4, 48 h, read-out: GI
A498 = assay: Growth inhibition of human A498 cells at 10 uM after 48 hrs; assay type: functional; details: A498, 48 h, read-out: GI
[6] = Growth inhibition of human PC3 cells at 10 uM after 48 hrs; assay type: functional; details: PC-3, 48 h, read-out: GI
U-251 = assay: Growth inhibition of human U251 cells at 10 uM after 48 hrs; assay type: functional; details: U-251, 48 h, read-out: GI
Candida albicans = assay: Antimicrobial activity against Candida albicans assessed as inhibition zone at 200 ug/disk after 24 hrs by disc-diffusion method; assay type: functional; details: read-out: IZ
[7] = Growth inhibition of human HCC2998 cells at 10 uM after 48 hrs; assay type: functional; details: HCC 2998, 48 h, read-out: GI
[8] = Growth inhibition of human HOP92 cells at 10 uM after 48 hrs; assay type: functional; details: HOP-92, 48 h, read-out: GI
Staphylococcus aureus = assay: Antimicrobial activity against Staphylococcus aureus assessed as inhibition zone at 200 ug/disk after 24 hrs by disc-diffusion method; assay type: functional; details: read-out: IZ
[9] = Growth inhibition of human SF295 cells at 10 uM after 48 hrs; assay type: functional; details: SF-295, 48 h, read-out: GI
K562 = assay: Growth inhibition of human K562 cells at 10 uM after 48 hrs; assay type: functional; details: K562, 48 h, read-out: GI
[10] = Growth inhibition of human BT549 cells at 10 uM after 48 hrs; assay type: functional; details: BT-549, 48 h, read-out: GI
[11] = Growth inhibition of human OVCAR8 cells at 10 uM after 48 hrs; assay type: functional; details: OVCAR-8, 48 h, read-out: GI
NCI-H226 = assay: Growth inhibition of human NCI-H226 cells at 10 uM after 48 hrs; assay type: functional; details: NCI-H226, 48 h, read-out: GI
[12] = Growth inhibition of human COLO205 cells at 10 uM after 48 hrs; assay type: functional; details: COLO 205, 48 h, read-out: GI
[13] = Growth inhibition of human HCT116 cells at 10 uM after 48 hrs; assay type: functional; details: HCT-116, 48 h, read-out: GI
SK-MEL-5 = assay: Growth inhibition of human SK-MEL-5 cells at 10 uM after 48 hrs; assay type: functional; details: SK-MEL-5, 48 h, read-out: GI
[14] = Growth inhibition of human UACC257 cells at 10 uM after 48 hrs; assay type: functional; details: UACC-257, 48 h, read-out: GI
[15] = Growth inhibition of human HCT15 cells at 10 uM after 48 hrs; assay type: functional; details: HCT-15, 48 h, read-out: GI
Escherichia coli = assay: Antimicrobial activity against Escherichia coli assessed as inhibition zone at 200 ug/disk after 24 hrs by disc-diffusion method; assay type: functional; details: read-out: IZ
SN12C = assay: Growth inhibition of human SN12C cells at 10 uM after 48 hrs; assay type: functional; details: read-out: GI
[16] = Growth inhibition of human UACC62 cells at 10 uM after 48 hrs; assay type: functional; details: UACC-62, 48 h, read-out: GI
NCI-H522 = assay: Growth inhibition of human NCI-H522 cells at 10 uM after 48 hrs; assay type: functional; details: NCI-H522, 48 h, read-out: GI
SW-620 = assay: Growth inhibition of human SW620 cells at 10 uM after 48 hrs; assay type: functional; details: SW-620, 48 h, read-out: GI
M14 = assay: Growth inhibition of human M14 cells at 10 uM after 48 hrs; assay type: functional; details: M14, 48 h, read-out: GI
ACHN = assay: Growth inhibition of human ACHN cells at 10 uM after 48 hrs; assay type: functional; details: read-out: GI
[17] = Growth inhibition of human Hs 578T cells at 10 uM after 48 hrs; assay type: functional; details: read-out: GI
MDA-MB-468 = assay: Growth inhibition of human MDA-MB-468 cells at 10 uM after 48 hrs; assay type: functional; details: MDA-MB-468, 48 h, read-out: GI
[18] = Growth inhibition of human SF539 cells at 10 uM after 48 hrs; assay type: functional; details: SF-539, 48 h, read-out: GI
Dihydrofolate reductase = target: T1, Dihydrofolate reductase (Bos taurus, UniProt P00376); assay: Inhibition of bovine liver DHFR
T1 sequence (P00376 whole entry): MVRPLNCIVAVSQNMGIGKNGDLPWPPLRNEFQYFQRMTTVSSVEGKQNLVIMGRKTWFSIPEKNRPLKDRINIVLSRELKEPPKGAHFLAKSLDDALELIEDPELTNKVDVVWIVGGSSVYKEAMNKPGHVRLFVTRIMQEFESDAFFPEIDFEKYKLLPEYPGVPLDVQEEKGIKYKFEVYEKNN

MCF7 = assay: Growth inhibition of human MCF7 cells at 10 uM after 48 hrs; assay type: functional; details: MCF7, 48 h, read-out: GI
Bacillus subtilis = assay: Antimicrobial activity against Bacillus subtilis assessed as inhibition zone at 200 ug/disk after 24 hrs by disc-diffusion method; assay type: functional; details: read-out: IZ
[19] = Growth inhibition of human NCI-ADR-RES cells at 10 uM after 48 hrs; assay type: functional; details: read-out: GI
[20] = Growth inhibition of human MOLT4 cells at 10 uM after 48 hrs; assay type: functional; details: MOLT-4, 48 h, read-out: GI

Work on COc1cc2nc(Sc3sc(N)nc3C)n(-c3ccc(Oc4ccccc4)cc3)c(=O)c2cc1OC yielded an inhibition of growth at 10 µM [1] of 23.9%, an inhibition of growth at 10 µM [2] of 32.4% and an inhibition of growth at 10 µM (786-0) of 20%. For the same compound, the inhibition of growth at 10 µM (T47D) was 22.7%, the inhibition of growth at 10 µM (HT-29) was 25% and the inhibition of growth at 10 µM [3] was 21.7%. For the same compound, the inhibition of growth at 10 µM (SNB-75) was 13.3%, the inhibition of growth at 10 µM (A549) was 16.7% and the inhibition of growth at 10 µM [4] was 14.1%. The inhibition of growth at 10 µM (CCRF-CEM) was 35.5%, the zone of inhibition at 200 µg/disc (Pseudomonas aeruginosa) was 8 mm and the inhibition of growth at 10 µM (HL-60(TB)) was 21.2%. The inhibition of growth at 10 µM [5] was 49.3%, the inhibition of growth at 10 µM (A498) was 18% and the inhibition of growth at 10 µM [6] was 34.9%. It also gave an inhibition of growth at 10 µM (U-251) of 12.4%, a zone of inhibition at 200 µg/disc (Candida albicans) of 8 mm and an inhibition of growth at 10 µM [7] of 19.6%. The inhibition of growth at 10 µM [8] was 20.5%, the zone of inhibition at 200 µg/disc (Staphylococcus aureus) was 8 mm and the inhibition of growth at 10 µM [9] was 14.6%. For the same compound, the inhibition of growth at 10 µM (K562) was 21.5%, the inhibition of growth at 10 µM [10] was 28.7% and the inhibition of growth at 10 µM [11] was 15%. The inhibition of growth at 10 µM (NCI-H226) was 10.3%, the inhibition of growth at 10 µM [12] was 24.1% and the inhibition of growth at 10 µM [13] was 52.7%. The inhibition of growth at 10 µM (SK-MEL-5) was 23.2%, the inhibition of growth at 10 µM [14] was 10.3% and the inhibition of growth at 10 µM [15] was 20.1%. The zone of inhibition at 200 µg/disc (Escherichia coli) was 8 mm, the inhibition of growth at 10 µM (SN12C) was 20.3% and the inhibition of growth at 10 µM [16] was 18.6%. The inhibition of growth at 10 µM (NCI-H522) was 16.3%, the inhibition of growth at 10 µM (SW-620) was 18.8% and the inhibition of growth at 10 µM (M14) was 18.5%. For the same compound, the inhibition of growth at 10 µM (ACHN) was 18.5%, the inhibition of growth at 10 µM [17] was 11.6% and the inhibition of growth at 10 µM (MDA-MB-468) was 19.9%. For the same compound, the inhibition of growth at 10 µM [18] was 18.7%, the IC50 (Dihydrofolate reductase) was 6 µM and the inhibition of growth at 10 µM (MCF7) was 25.7%. It also gave a zone of inhibition at 200 µg/disc (Bacillus subtilis) of 8 mm, an inhibition of growth at 10 µM [19] of 24.8% and an inhibition of growth at 10 µM [20] of 46.1%.
